Measured values reported in patent US20210220482A1, “MITOCHONDRIAL COPPER DEPLETION REPROGRAMS THE METABOLISM OF TRIPLE NEGATIVE BREAST CANCER” (The Board of Trustees of the Leland Stanford Junior …, priority 2019, published 2021).
Read-outs that look alike come from different tables or passages of the source.

Key:
[1] = test system: MDA-MB-231 and MDA-MB-468 cells; assay: Western blot of cleaved caspase 3 (apoptosis); assay type: cell-based, human; conditions: 24 h incubation; CDM 1 μM, ATN224 5 μM, inhibitors 1 μM
Method: Then cells were trypsinized, and cell lysates were prepared with RIPA buffer (Thermo, cat. no. 89900). The protein concentrations were quantified by Pierce BCA assay (Thermo Scientific, 23250). Cleaved caspase 3 antibody was purchased from Cell Signaling Technologies (Asp175, no. 9661). SOD1 antibody was from Santa Cruz Biotechnologies (sc-101523).

[2] = test system: MDA-MB-231 orthotopic tumors; assay: Long-term survival study; assay type: in vivo, nude mice; conditions: i.v. weekly, seven doses, chelator 1.35 mg kg^−1; ATN224 oral gavage 0.7 mg kg^−1 d^−1
Text: The SPN group received an i.v. injection of the same amount of SPN as in the CDN group weekly for seven doses in total. […] The treatment plan was initiated when the average tumor size reached 50 mm^3 and the endpoint of the survival study was primary tumor volume over 500 mm^3 and/or other signs identified by the veterinarian. The tumor volumes were continuously monitored over the treatment plan.

[3] = test system: MDA-MB-231 and MDA-MB-468 cells; assay: OCR and ECAR measurement (Seahorse); assay type: cell-based, human; conditions: after 1 h of incubation, both cell lines, vs nontreated control
Method: OCR and ECAR measurement. OCR and ECAR were measured by a Seahorse Bioscience instrument (XF96, Agilent). Briefly, on the day following MDA-MB-231 or MDA-MB-468 cell seeding, cells were incubated with CDN or control agents for 24 h (chelator concentration, 1 μM). On the day of measurement, cells were washed three times with D-PBS, changed into fresh medium without phenol red and bicarbonate (Seahorse base medium, cat. no. 103336-100) and equilibrated for 30 min in a 37° C. incubator lacking CO2. Oxygen concentration and extracellular acidification in media were measured at basal conditions and after sequential addition of oligomycin (1 μM, introduced after 28 min), FCCP (1 μM, introduced after 54 min) and rotenone/antimycin A (0.5 μM, introduced after 80 min) (n=8 per condition for OCR and ECAR for each cell line). […] Cells were then changed into Seahorse base medium and equilibrated for 30 min in a 37° C. incubator lacking CO2. Oxygen concentration and extracellular acidification in media were measured at basal conditions and after sequential addition of oligomycin (1 μM, introduced after 28 min), FCCP (1 μM, introduced after 54 min) and rotenone/antimycin A (0.5 μM, introduced after 80 min) (n=6 per condition for OCR and ECAR for each cell line).

MDA-MB-231luc cells = assay: In vitro copper depletion (CCL-1 luminescence, CDM fluorescence); assay type: cell-based, human; conditions: CDN (CDM 1 μM) with excess EDTA, 24 h
Method: In vitro copper depletion: The copper level after CDN or control agent treatment was measured by CCL-1 luminescence imaging or ratiometric fluorescence microscopic imaging of fCDN. […] SPN, 50 μg ml-1) was added and incubation was continued for 24 h. […] Cells were immediately imaged by IVIS Spectrum (PerkinElmer) for 45 min. The integration images of luminescent radiance were presented. […] Images were processed as green/red ratios profiled by ImageJ and presented in pseudo-colors.

[4] = test system: MDA-MB-231 and MDA-MB-468 cells; assay: Cell viability with ROS scavenger MitoTEMPO; assay type: cell-based, human; conditions: MitoTEMPO up to 5 μM
Method: Cytotoxicity: For the MTS assay, TNBC and normal cells were seeded into 96-well plates 24 h before the test and cultured in a humidified atmosphere of 5% CO2 and 95% air at 37° C. Cells were then incubated with CDN or control agents with the concentrations indicated in FIG. 2 in complete medium or base medium without FBS supplement. At 24 h after incubation, cells were washed with PBS three times and changed to fresh medium. The viability of the cells after treatment was measured using the MTS assay (CellTiter 96, Promega, cat. no. G3580). The viability was presented as the percentage of control (n=3 per condition for viability). For the trypan blue exclusion test, TNBC cells were seeded into six-well plates 24 h before the test and cultured in a humidified atmosphere of 5% CO2 and 95% air at 37° C. Cells were then incubated with CDN or control agents in complete medium. […] The viability of the cells was measured with Countess II (Life Technology). […]
Cellular ATP measurement: ATP levels after CDN or control agent treatment were determined by Adenosine 5-triphosphate Bioluminescent Somatic Cell Assay Kit (Sigma-Aldrich, FLASC). […] The luminescence signals were measured by a Turner Biosystems 20/20n luminometer. The ATP concentration of each group was determined based on the ATP standard assay (n=3 per condition ATP production measurement for each cell line).

MDA-MB-468 cells = assay: Cytotoxicity MTS assay, MDA-MB-468; assay type: cell-based, human; conditions: MDA-MB-468, 24 h, in the presence of serum
Method: (§1) Cytotoxicity: For the MTS assay, TNBC and normal cells were seeded into 96-well plates 24 h before the test and cultured in a humidified atmosphere of 5% CO2 and 95% air at 37° C. Cells were then incubated with CDN or control agents with the concentrations indicated in FIG. 2 in complete medium or base medium without FBS supplement. At 24 h after incubation, cells were washed with PBS three times and changed to fresh medium. The viability of the cells after treatment was measured using the MTS assay (CellTiter 96, Promega, cat. no. G3580). The viability was presented as the percentage of control (n=3 per condition for viability). For the trypan blue exclusion test, TNBC cells were seeded into six-well plates 24 h before the test and cultured in a humidified atmosphere of 5% CO2 and 95% air at 37° C. Cells were then incubated with CDN or control agents in complete medium. At 24 h after incubation, cells were washed with PBS three times and collected with a scraper. The cell suspension was then mixed with 0.4% trypan blue dye (1:1; Thermo Fisher Scientific, cat. no. 15250061) and incubated for less than 3 min at room temperature. The viability of the cells was measured with Countess II (Life Technology). The viability was presented as the percentage of control (n=3 per condition for viability).

MDA-MB-231 cells = assay: Cytotoxicity MTS assay, MDA-MB-231; assay type: cell-based, human; conditions: MDA-MB-231, 24 h, in the presence of serum, read-out: half-maximum inhibitory concentration (IC50)
Method: as §1

[5] = test system: MDA-MB-231luc orthotopic breast cancer; assay: Copper level in tumor after treatment (CCL-1/d-luciferin imaging); assay type: in vivo, mice; conditions: i.v. 1.35 mg kg^−1 every 3 d, day 25, compared with the control group
Method: For the treatment group, mice were intravenously injected with CDN or control agents every 3 d, with five doses in total. Tumor volume was continuously monitored over the treatment plan. At day 25 after initial treatment, mice were subjected to d-luciferin bioluminescence imaging (150 mg kg^−1) and CCL-1 luminescence imaging (6 mg kg^−1).

C[N+](C)(C)CCO.C[N+](C)(C)CCO.[SH-].[SH-].[S]=[Mo]=[S] [ATN224]
apoptosis (cleaved caspase 3) [1]: but not with ATN224 treatment | median survival [2]: 32 days

Cc1cc(-c2nc(-c3ccc(OC(F)(F)F)cc3)no2)nn1Cc1ccnc(N2CCN(C3CC3)CC2)c1 [BAY 87-2243]
apoptosis (cleaved caspase 3) [1]: barely induced apoptosis | oxygen consumption (OCR) [3]: almost completely inhibited the oxygen consumption

O=C(O)CN(CCN(CC(=O)O)CC(=O)O)CC(=O)O [EDTA, ethylenediaminetetraacetic acid]
CCL-1 luminescence (labile copper) (MDA-MB-231luc cells): 78.6±11.7 % of the CDN group | CDM fluorescence (MDA-MB-231luc cells): 123.7±4.1 % of the CDN group

Cc1nc(-c2nc(-c3ccc(OC(F)(F)F)cc3)no2)nn1Cc1cccc(N2CCC(S(C)(=O)=O)CC2)c1 [IACS-010759]
apoptosis (cleaved caspase 3) [1]: barely induced apoptosis | oxygen consumption (OCR) [3]: almost completely inhibited the oxygen consumption

CC1(C)CC(NC(=O)C[P+](c2ccccc2)(c2ccccc2)c2ccccc2)CC(C)(C)N1[O] [MitoTEMPO]
rescue of cells from the CDN treatment effect ([4]; CDM 1 μM, 24 h): did not rescue the cells | effect on cell viability ([4]; medium with or without FBS): will not affect the cell viability

[SH-].[SH-].[S]=[Mo]=[S] [TM, tetrathiomolybdate]
IC50 (MDA-MB-468 cells): ~46.3 µM | IC50 (MDA-MB-231 cells): > 100 µM

c1ccc(CN(Cc2ccccn2)Cc2ccccn2)nc1 [TPA, tris[(2-pyridyl)-methyl]amine]
copper in the tumor region (CCL-1 to d-luciferin total flux ratio) [5]: successfully depleted the copper in the tumor region | IC50 (MDA-MB-468 cells; Homo sapiens): 5.34 ± 1.12 µM | IC50 (MDA-MB-231 cells; Homo sapiens): 9.25 ± 2.19 µM | median survival [2]: 35 days
